In patent US5334456A, “Free-radical curable compositions” (priority 1992, dated 1994):
Counter-ions that a name gives are not always drawn. Like-named read-outs stand apart in the source and are kept apart here.

How the values were obtained:
[1] = Inhalation Kill (animals); assay type: in vivo; conditions: Table XVI
Description: Toxicity tests were performed on commercially available (meth) acrylate oligomers and diluents and on commercially available vinyl ether and maleate diluents.

[2] = not given; remark: listed apart in the source
[3] = Viscosity (Brookfield viscometer); assay type: physicochemical; conditions: 25° C., product as prepared
Description: The viscosity, expressed in pascal seconds (Pa s), was measured using a Brookfield Model RVTD viscometer operated in accordance with the instructions provided therewith. The temperature of each sample tested was 25° C.
The viscosity of the saturated ester oligomers having maleate end groups was determined utilizing a Brookfield RTV viscometer.

Compound	Skin Irritation (Table XVI, max. = 8)	Inhalation Kill [1]	Eye Irritation ([2]; Table XVI, max. = 10)	Skin Irritation (in vivo)	Eye Irritation ([2]; in vivo)	viscosity [3]	viscosity ([3]; listed as Component 3)
C=CC(=O)OCCCCCCOC(=O)C=C [1,6-hexanediol diacrylate]	3	0 of 6	2				
C=CC(=O)OCCO [2-hydroxyethyl acrylate]	6	1 of 6	9				
C=CC(=O)OCCOc1ccccc1 [2-phenoxyethyl acrylate]	3	0 of 6	1				
CCOC(=O)/C=C\C(=O)OCC [Diethyl maleate]	mild		mild				
C=CC(=O)OCCOCCOC(=O)C=C [Diethyleneglycol diacrylate]	5	0 of 6	9				
COC(=O)/C=C\C(=O)OC [Dimethyl maleate]				5.47	moderate		
CCCCOC(=O)/C=C\C(=O)OCCCC [Dubutyl maleate]	mild						
C=COCCCCOC(=O)/C=C\C(=O)OCC [Example 1, 4-vinyloxybutyl ethyl maleate]						about 36 cP	36 cP
C=CC(=O)OCC(C)(C)COC(=O)C=C [Neopentylglycol diacrylate]	5	1 of 6	8				
C=CC(=O)OCC(CO)(COC(=O)C=C)COC(=O)C=C [Pentaerythritol triacrylate]	2	0 of 6	10				
